The results in this text go back to ChEMBL document CHEMBL5442219.

Holding throughout (conditions): Compound concentration 10 µM
For assay [1], the target named is T1, Alpha-2A adrenergic receptor (Homo sapiens) (UniProt P08913).
T1 sequence (whole entry): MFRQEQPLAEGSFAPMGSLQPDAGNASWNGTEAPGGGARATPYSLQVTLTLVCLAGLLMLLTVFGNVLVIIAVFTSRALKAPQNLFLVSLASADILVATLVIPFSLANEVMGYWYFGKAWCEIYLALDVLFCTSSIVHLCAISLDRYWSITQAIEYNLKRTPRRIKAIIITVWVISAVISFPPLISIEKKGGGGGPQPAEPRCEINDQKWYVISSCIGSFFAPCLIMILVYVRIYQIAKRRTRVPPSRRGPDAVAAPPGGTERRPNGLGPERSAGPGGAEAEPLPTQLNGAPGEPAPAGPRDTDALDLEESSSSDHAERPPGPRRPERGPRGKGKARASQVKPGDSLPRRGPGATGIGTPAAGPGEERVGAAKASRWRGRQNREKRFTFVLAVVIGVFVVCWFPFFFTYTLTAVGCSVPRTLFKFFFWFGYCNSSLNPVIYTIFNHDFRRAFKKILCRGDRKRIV
Description: PDSP Primary Binding target: ADRA2A - Compounds are tested at 10 uM concentration, plate are incubated at room temperature in the dark for 90 minutes. Reaction are stopped by vacuum filtration onto 0.3% polyethyleneimine soaked filter mats using Filtermate harvester. Scintilation cocktail is then melted onto microwave-dried filters on a hot plate and the radio activity is counted in Microbia counter.

The target in assay [2] is Beta-2 adrenergic receptor (Homo sapiens) (UniProt P07550).
Description: PDSP Primary Binding target: ADRB2 - Compounds are tested at 10 uM concentration, plate are incubated at room temperature in the dark for 90 minutes. Reaction are stopped by vacuum filtration onto 0.3% polyethyleneimine soaked filter mats using Filtermate harvester. Scintilation cocktail is then melted onto microwave-dried filters on a hot plate and the radio activity is counted in Microbia counter.
The target in assay [3] is D(3) dopamine receptor (Homo sapiens) (UniProt P35462).
Description: PDSP Primary Binding target: DRD3 - Compounds are tested at 10 uM concentration, plate are incubated at room temperature in the dark for 90 minutes. Reaction are stopped by vacuum filtration onto 0.3% polyethyleneimine soaked filter mats using Filtermate harvester. Scintilation cocktail is then melted onto microwave-dried filters on a hot plate and the radio activity is counted in Microbia counter.
Assay [4] concerns the target 5-hydroxytryptamine receptor 2B (Homo sapiens) (UniProt P41595).
Description: PDSP Primary Binding target: HTR2B - Compounds are tested at 10 uM concentration, plate are incubated at room temperature in the dark for 90 minutes. Reaction are stopped by vacuum filtration onto 0.3% polyethyleneimine soaked filter mats using Filtermate harvester. Scintilation cocktail is then melted onto microwave-dried filters on a hot plate and the radio activity is counted in Microbia counter.
Assay [5] concerns the target 5-hydroxytryptamine receptor 6 (Homo sapiens) (UniProt P50406).
Description: PDSP Primary Binding target: HTR6 - Compounds are tested at 10 uM concentration, plate are incubated at room temperature in the dark for 90 minutes. Reaction are stopped by vacuum filtration onto 0.3% polyethyleneimine soaked filter mats using Filtermate harvester. Scintilation cocktail is then melted onto microwave-dried filters on a hot plate and the radio activity is counted in Microbia counter.
Assay [6] has as its target 5-hydroxytryptamine receptor 7 (Homo sapiens) (UniProt P34969).
Description: PDSP Primary Binding target: HTR7 - Compounds are tested at 10 uM concentration, plate are incubated at room temperature in the dark for 90 minutes. Reaction are stopped by vacuum filtration onto 0.3% polyethyleneimine soaked filter mats using Filtermate harvester. Scintilation cocktail is then melted onto microwave-dried filters on a hot plate and the radio activity is counted in Microbia counter.
For assay [7], the target named is Delta-type opioid receptor (Homo sapiens) (UniProt P41143).
Description: PDSP Primary Binding target: OPRD1 - Compounds are tested at 10 uM concentration, plate are incubated at room temperature in the dark for 90 minutes. Reaction are stopped by vacuum filtration onto 0.3% polyethyleneimine soaked filter mats using Filtermate harvester. Scintilation cocktail is then melted onto microwave-dried filters on a hot plate and the radio activity is counted in Microbia counter.
In assay [8] the target is Kappa-type opioid receptor (Homo sapiens) (UniProt P41145).
Description: PDSP Primary Binding target: OPRK1 - Compounds are tested at 10 uM concentration, plate are incubated at room temperature in the dark for 90 minutes. Reaction are stopped by vacuum filtration onto 0.3% polyethyleneimine soaked filter mats using Filtermate harvester. Scintilation cocktail is then melted onto microwave-dried filters on a hot plate and the radio activity is counted in Microbia counter.
The target of assay [9] is Sigma non-opioid intracellular receptor 1 (Homo sapiens) (UniProt Q99720).
Description: PDSP Primary Binding target: SIGMAR1 - Compounds are tested at 10 uM concentration, plate are incubated at room temperature in the dark for 90 minutes. Reaction are stopped by vacuum filtration onto 0.3% polyethyleneimine soaked filter mats using Filtermate harvester. Scintilation cocktail is then melted onto microwave-dried filters on a hot plate and the radio activity is counted in Microbia counter.
Assay [10] addresses T2, Muscarinic acetylcholine receptor M1 (Homo sapiens) (UniProt P11229).
T2 sequence (whole entry): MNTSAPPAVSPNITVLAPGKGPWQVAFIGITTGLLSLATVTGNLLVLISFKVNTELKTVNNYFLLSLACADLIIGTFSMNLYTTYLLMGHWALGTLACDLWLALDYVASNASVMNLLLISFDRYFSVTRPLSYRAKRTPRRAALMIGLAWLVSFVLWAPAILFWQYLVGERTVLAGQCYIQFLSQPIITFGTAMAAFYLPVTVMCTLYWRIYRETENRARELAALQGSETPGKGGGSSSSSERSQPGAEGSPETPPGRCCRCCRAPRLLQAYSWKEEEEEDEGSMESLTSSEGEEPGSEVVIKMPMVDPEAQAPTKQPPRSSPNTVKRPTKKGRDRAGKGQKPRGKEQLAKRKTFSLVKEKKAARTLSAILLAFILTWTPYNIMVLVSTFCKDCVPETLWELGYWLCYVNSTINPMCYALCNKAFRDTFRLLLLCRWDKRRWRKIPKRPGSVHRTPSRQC
Description: PDSP Primary Binding target: CHRM1 - Compounds are tested at 10 uM concentration, plate are incubated at room temperature in the dark for 90 minutes. Reaction are stopped by vacuum filtration onto 0.3% polyethyleneimine soaked filter mats using Filtermate harvester. Scintilation cocktail is then melted onto microwave-dried filters on a hot plate and the radio activity is counted in Microbia counter.

Assay [11] deals with T3, Muscarinic acetylcholine receptor M4 (Homo sapiens) (UniProt P08173).
T3 sequence (whole entry): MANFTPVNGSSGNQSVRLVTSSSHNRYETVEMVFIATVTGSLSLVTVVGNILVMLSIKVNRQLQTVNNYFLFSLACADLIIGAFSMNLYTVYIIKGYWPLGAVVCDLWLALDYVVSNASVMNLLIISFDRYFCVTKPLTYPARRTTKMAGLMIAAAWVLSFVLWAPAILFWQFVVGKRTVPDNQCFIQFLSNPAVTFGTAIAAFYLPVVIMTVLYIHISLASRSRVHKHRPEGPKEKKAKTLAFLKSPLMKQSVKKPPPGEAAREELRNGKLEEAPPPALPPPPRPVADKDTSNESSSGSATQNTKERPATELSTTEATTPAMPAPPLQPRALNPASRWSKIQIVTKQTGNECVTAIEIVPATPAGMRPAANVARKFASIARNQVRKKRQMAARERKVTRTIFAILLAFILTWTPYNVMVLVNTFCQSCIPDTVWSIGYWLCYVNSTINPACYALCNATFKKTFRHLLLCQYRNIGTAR
Description: PDSP Primary Binding target: CHRM4 - Compounds are tested at 10 uM concentration, plate are incubated at room temperature in the dark for 90 minutes. Reaction are stopped by vacuum filtration onto 0.3% polyethyleneimine soaked filter mats using Filtermate harvester. Scintilation cocktail is then melted onto microwave-dried filters on a hot plate and the radio activity is counted in Microbia counter.

The target in assay [12] is D(1B) dopamine receptor (Homo sapiens) (UniProt P21918).
Description: PDSP Primary Binding target: DRD5 - Compounds are tested at 10 uM concentration, plate are incubated at room temperature in the dark for 90 minutes. Reaction are stopped by vacuum filtration onto 0.3% polyethyleneimine soaked filter mats using Filtermate harvester. Scintilation cocktail is then melted onto microwave-dried filters on a hot plate and the radio activity is counted in Microbia counter.
The target of assay [13] is T4, 5-hydroxytryptamine receptor 2C (Homo sapiens) (UniProt P28335).
T4 sequence (whole entry): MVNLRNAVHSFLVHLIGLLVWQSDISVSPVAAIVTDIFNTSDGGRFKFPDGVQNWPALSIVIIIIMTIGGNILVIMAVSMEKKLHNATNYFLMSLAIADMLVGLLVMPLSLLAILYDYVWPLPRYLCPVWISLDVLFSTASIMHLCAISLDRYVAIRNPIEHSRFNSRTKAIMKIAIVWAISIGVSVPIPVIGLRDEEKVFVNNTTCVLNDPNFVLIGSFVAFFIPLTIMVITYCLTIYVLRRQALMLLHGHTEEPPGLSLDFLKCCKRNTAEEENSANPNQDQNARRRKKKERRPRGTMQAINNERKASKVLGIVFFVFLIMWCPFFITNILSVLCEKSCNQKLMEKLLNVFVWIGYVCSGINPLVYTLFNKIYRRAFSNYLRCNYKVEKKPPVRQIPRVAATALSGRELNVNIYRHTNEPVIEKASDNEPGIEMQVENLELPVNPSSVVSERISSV
Description: PDSP Primary Binding target: HTR2C - Compounds are tested at 10 uM concentration, plate are incubated at room temperature in the dark for 90 minutes. Reaction are stopped by vacuum filtration onto 0.3% polyethyleneimine soaked filter mats using Filtermate harvester. Scintilation cocktail is then melted onto microwave-dried filters on a hot plate and the radio activity is counted in Microbia counter.

5-hydroxytryptamine receptor 7 (Homo sapiens), sequence (P34969 whole entry): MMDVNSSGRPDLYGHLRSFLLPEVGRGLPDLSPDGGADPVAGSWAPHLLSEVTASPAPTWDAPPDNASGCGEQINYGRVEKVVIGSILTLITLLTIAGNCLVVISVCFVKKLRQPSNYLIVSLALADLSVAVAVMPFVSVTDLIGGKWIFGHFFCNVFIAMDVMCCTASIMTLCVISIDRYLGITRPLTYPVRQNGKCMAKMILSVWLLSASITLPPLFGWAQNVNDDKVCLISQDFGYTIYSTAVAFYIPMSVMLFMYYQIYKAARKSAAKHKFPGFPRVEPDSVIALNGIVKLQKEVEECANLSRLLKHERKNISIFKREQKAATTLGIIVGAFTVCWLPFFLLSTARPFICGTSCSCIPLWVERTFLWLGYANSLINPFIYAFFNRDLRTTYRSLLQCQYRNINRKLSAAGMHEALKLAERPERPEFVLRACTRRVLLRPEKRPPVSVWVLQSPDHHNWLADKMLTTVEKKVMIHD
Kappa-type opioid receptor (Homo sapiens), sequence (P41145 whole entry): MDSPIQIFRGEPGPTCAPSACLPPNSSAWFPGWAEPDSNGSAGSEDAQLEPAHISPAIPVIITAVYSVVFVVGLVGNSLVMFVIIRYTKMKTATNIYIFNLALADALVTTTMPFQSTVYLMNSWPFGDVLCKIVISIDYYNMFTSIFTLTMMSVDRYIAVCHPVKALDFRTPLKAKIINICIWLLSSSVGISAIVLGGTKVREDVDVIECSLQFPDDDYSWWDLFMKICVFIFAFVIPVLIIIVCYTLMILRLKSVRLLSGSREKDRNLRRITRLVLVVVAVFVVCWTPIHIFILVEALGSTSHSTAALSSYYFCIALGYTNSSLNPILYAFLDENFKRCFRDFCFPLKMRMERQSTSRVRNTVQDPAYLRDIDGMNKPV
Delta-type opioid receptor (Homo sapiens), sequence (P41143 whole entry): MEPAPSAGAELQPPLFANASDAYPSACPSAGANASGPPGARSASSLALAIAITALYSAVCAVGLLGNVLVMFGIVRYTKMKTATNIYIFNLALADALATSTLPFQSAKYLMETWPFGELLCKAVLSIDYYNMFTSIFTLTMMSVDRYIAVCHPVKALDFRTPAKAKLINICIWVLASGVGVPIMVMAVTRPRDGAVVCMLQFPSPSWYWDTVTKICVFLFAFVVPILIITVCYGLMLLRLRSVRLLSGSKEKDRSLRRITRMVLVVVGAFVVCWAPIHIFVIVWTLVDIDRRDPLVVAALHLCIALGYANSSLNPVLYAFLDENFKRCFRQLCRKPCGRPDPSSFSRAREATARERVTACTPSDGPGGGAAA
D(3) dopamine receptor (Homo sapiens), sequence (P35462 whole entry): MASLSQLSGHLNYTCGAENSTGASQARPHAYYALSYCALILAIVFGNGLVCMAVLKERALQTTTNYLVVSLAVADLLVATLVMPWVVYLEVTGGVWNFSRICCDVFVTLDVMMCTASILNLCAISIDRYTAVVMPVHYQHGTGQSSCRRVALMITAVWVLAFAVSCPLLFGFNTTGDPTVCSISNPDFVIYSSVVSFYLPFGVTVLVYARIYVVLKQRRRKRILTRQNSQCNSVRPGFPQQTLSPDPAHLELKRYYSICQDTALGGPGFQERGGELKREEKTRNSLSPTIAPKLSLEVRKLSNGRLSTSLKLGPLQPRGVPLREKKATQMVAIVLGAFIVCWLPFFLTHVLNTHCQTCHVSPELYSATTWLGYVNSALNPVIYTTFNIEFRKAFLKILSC
Sigma non-opioid intracellular receptor 1 (Homo sapiens), sequence (Q99720 whole entry): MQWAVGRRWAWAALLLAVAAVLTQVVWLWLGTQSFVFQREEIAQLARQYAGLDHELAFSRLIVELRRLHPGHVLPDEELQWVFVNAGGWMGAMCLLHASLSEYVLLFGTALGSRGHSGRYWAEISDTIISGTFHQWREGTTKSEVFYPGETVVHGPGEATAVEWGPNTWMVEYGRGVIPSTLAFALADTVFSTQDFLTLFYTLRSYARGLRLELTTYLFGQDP
5-hydroxytryptamine receptor 6 (Homo sapiens), sequence (P50406 whole entry): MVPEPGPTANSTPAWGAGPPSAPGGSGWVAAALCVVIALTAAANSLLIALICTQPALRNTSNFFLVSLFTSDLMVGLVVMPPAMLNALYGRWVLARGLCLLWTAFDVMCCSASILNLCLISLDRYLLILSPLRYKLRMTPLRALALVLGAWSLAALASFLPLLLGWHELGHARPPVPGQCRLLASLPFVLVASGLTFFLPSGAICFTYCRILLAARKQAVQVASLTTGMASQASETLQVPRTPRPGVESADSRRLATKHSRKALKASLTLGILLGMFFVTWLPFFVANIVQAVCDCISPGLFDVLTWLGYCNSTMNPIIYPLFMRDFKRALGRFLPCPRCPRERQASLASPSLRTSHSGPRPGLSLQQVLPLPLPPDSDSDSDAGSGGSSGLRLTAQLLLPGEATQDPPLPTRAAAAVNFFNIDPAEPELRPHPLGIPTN
Beta-2 adrenergic receptor (Homo sapiens), sequence (P07550 whole entry, looked up): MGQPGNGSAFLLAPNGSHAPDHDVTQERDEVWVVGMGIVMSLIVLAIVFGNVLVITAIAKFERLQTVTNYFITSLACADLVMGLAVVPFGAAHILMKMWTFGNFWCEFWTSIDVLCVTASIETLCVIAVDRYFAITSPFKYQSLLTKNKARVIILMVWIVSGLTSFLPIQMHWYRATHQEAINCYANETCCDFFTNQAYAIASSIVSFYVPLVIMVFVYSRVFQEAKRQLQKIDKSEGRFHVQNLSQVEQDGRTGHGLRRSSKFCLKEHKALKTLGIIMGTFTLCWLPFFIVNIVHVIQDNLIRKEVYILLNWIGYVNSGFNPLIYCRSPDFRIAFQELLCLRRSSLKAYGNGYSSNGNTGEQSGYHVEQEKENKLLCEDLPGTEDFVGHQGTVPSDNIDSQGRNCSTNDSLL
5-hydroxytryptamine receptor 2B (Homo sapiens), sequence (P41595 whole entry): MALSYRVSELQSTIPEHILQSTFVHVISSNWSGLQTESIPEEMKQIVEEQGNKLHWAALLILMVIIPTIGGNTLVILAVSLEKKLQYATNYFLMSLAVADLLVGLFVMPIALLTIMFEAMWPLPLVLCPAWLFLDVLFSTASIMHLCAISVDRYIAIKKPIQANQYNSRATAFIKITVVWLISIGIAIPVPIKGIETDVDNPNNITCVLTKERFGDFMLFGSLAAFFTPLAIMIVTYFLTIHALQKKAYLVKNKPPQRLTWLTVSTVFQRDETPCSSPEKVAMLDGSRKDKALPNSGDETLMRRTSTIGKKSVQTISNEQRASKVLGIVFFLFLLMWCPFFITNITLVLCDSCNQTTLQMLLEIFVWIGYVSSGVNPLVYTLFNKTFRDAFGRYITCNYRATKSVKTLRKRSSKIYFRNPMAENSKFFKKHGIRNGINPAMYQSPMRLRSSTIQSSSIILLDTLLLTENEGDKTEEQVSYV
D(1B) dopamine receptor (Homo sapiens), sequence (P21918 whole entry): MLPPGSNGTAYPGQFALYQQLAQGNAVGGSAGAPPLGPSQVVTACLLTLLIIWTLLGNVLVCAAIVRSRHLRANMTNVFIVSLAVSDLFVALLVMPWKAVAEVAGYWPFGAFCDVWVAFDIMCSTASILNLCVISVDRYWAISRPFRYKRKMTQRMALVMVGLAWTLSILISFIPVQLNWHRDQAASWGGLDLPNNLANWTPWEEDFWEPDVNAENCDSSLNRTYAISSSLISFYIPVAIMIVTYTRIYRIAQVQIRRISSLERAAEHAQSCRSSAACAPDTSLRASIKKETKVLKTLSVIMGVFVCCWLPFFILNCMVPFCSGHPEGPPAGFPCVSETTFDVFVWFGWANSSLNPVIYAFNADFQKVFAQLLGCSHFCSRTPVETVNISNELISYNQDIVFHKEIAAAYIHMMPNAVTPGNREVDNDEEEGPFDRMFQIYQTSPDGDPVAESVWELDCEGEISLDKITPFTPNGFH

What is called inhibition is the relative decrease from the control value, in per cent. With `CN(C(=O)Cc1ccc(Cl)c(Cl)c1)C(CN1CCCC1)c1cccc(OCC(=O)O)c1` (configuration not stated), the inhibition in assay [1] was 12.2%; in assay [2], -5.04%; in assay [3], 3.88%; in [4], 14.7%; in [5], 0.97%; in assay [6] it was -9.81%. Besides, the inhibition was 71.9% in [7], 100% in assay [8] and 24.1% in assay [9].

Regarding `CCc1cc2c(c(CC)n1)CCC(=O)N2Cc1ccc(-c2ccccc2-c2nnn[nH]2)cc1`, the inhibition in [1] was -6.38%; in [2], -4.26%; in [10], 1.99%; in assay [11], -4.36%; in [3], 87.1%; in assay [4], 10.5%. Besides, the inhibition was 10.1% in assay [5], 3.59% in assay [8] and 24.9% in assay [9].

`Nc1nc(NCCc2ccc(O)cc2)nc2nc(-c3ccco3)nn12`: the inhibition in assay [1] is 19%; in [2], -3.4%; in assay [3], 19.9%; in assay [12] it was 27.8%; in assay [4] it was 84.3%; in assay [13], 8.15%. The inhibition in [6] is 13.5%; in [7], 2.38%; in assay [8] it was -5.28%; in [9], 43.4%.

`O=C(c1cc2c(cc1F)OC(c1ccc(F)cc1)(c1ccc(Cl)cc1Cl)O2)N1CCOCC1` (configuration not stated): the inhibition is 18.1% in assay [1]; 5.79% in assay [2]; 27.4% in assay [3]; 75.9% in [12]; 85.6% in assay [4]; 73.4% in [13]. Moreover, the inhibition in assay [5] was -8.59%; in assay [6], 5.01%; in assay [7] it was 24.5%; in [8] it was 71.4%; in assay [9] it was 48.5%.

Take `CC(C)(C)NC[C@H](O)COc1nsnc1N1CCOCC1`: the inhibition in assay [1] is 11.8%; in [11] it was -8.25%; in assay [3], -0.36%; in assay [12], 6.52%; in assay [4], 16.9%; in [13] it was -1.62%. The figures for the inhibition in assay [8] and in [9] were 3.37% and 90.3%, respectively.

Take `C=CCN1C[C@H](C)N([C@H](c2ccc(C(=O)N(CC)CC)cc2)c2cccc(O)c2)C[C@H]1C`: the inhibition was 17.8% in assay [1]; 3.05% in assay [2]; 4.09% in assay [10]; -5.52% in assay [11]; 6.85% in assay [3]; 30% in [4]. In addition, the inhibition was 0.93% in [13]; 5.03% in assay [5]; 99.9% in assay [7]; 99.8% in assay [8]; 87.3% in [9].

As to `CCCCN(CC)c1nc(C)nc2c1c(C)cn2-c1c(C)cc(C)cc1C`, the inhibition in assay [1] is 4.06%; in assay [2] it was -7.68%; in assay [3], 18.6%; in assay [12], -2.04%; in [4], 16.9%; in assay [13] it was -7.17%. The values for the inhibition in assay [7], in assay [8] and in assay [9] were 7.66%, 43.2% and 28.8%, respectively.

As for `Cc1cc(C)cc(C(=O)N(C)[C@H](Cc2ccc(-c3ccccc3)cc2)C(=O)N[C@@H](Cc2c[nH]c3ccccc23)C(=O)O)c1`, the inhibition in assay [1] was -8.09%; in assay [2], 3.37%; in assay [10] it was 12.5%; in [11], 1%; in assay [3], 3.03%; in assay [4], -6.62%. The inhibition in [8] was 46.1%; in assay [9], -6.1%.

For the molecule `CCc1cc(C(C)=O)c(O)cc1OCCCCCC(C)(C)c1nn[nH]n1`, the inhibition in [1] was 14%; in [11], -4.28%; in [3] it was 46.8%; in assay [4] it was 64.2%; in [13] it was 0.93%; in assay [5], 8.17%. Also, the inhibition in assay [8] was 16.9%; in assay [9], 61.4%.

As to `N=C(N)SCCc1c[nH]cn1`, the inhibition in assay [1] was 51.5%; in assay [2], 6.81%; in [3], -0.38%; in assay [12], 3.23%; in assay [4], 33%; in assay [13] it was -2.06%. The inhibition in assay [5] was -1.7%; in assay [6] it was 19.2%; in assay [7], -6.86%; in [8] it was 5.15%; in assay [9] it was 13.1%.

In the case of `CC(C)C[C@H](NC(=O)N1CCCCCC1)C(=O)N[C@H](Cc1cn(C)c2ccccc12)C(=O)N[C@H](Cc1ccccn1)C(=O)O`, the inhibition was -6.57% in [1]; -6.68% in assay [2]; 0.87% in assay [10]; 0.19% in assay [11]; 22.6% in assay [3]; -0.58% in assay [12]. For the same molecule, the inhibition in assay [4] is 16%; in assay [8], -7.75%; in assay [9], 4.12%.

Consider `CCCn1c(=O)c2[nH]c(-c3cnn(Cc4cccc(C(F)(F)F)c4)c3)nc2n(CC)c1=O`, for which the inhibition in assay [1] was 10.9%; in [2] it was -2.75%; in [10] it was -6.12%; in assay [12], -3.39%; in assay [4], 35.7%; in assay [7] it was -6.13%. In addition, the inhibition in assay [8] is -2.72%; in assay [9], 43.2%.

As for `Cc1cccc([C@H](C)c2c[nH]cn2)c1C`, the inhibition in [1] was 104%; in [2] it was 20.7%; in assay [3], 21.5%; in [12], 11.4%; in assay [4] it was 51.3%; in [13], 14.5%. Moreover, the inhibition was 1.41% in [5], 68.1% in assay [6], -4.15% in assay [7] and 1.54% in assay [9].

Regarding `COc1ccc(S(=O)(=O)c2cc(OC)ccc2S(=O)(=O)c2ccc([C@H](C)NS(C)(=O)=O)cc2)cc1`, the inhibition in assay [1] was -4.09%; in assay [2], -1.6%; in [10], -2.24%; in assay [11], -3.37%; in assay [3] it was 73.4%; in assay [12] it was 14.2%. Further, the inhibition in [4] was 23.7%; in [13], 18.7%; in assay [5], 96.5%; in assay [8] it was 2.71%; in assay [9], 23.1%.
